Results from patent US8071314B2 (priority 2001, dated 2011).
Values joined by “and” are separate entries in the source; they are usually repeats but may differ in a detail not shown here. Equal entries are not always repeated. Where two headings read alike, the source gives them in different places.

Test system: N-methyl-D-aspartate (NMDA) receptor
Assay type: cell-based, mouse

Which results are given for `NC(CCCP(=O)(O)O)C(=O)O` [D-APV, 2-amino-5-phosphonovalerate]?
LTP in the presence of the NMDA antagonist (50 μM D-APV, all genotypes, hippocampal slices, 100 Hz tetanus, 100 μM picrotoxin in bath): completely abolished; Posttetanus fEPSP slopes, averaged over 180 min (relative to baseline) (n=3): 107±14% and 97±9%; Posttetanus fEPSP slopes, averaged over 180 min (relative to baseline) (n=5): 106±10%
